Results from article PMC4455059 (Nature Communications, 2015).
Like-named read-outs stand apart in the source and are kept apart here. Each block holds one compound with its values, some of them ahead of it. Non-standard residues stand in square brackets, D forms with d. Residues, ends and D or L forms follow the SMILES beside them. Phe(3-I) = N[C@@H](Cc1cccc(I)c1)C(=O)O; Phe(4-I) = N[C@@H](Cc1ccc(I)cc1)C(=O)O

Columns and labels:
[1] = tested on: several cancer cell lines; experiment: Preliminary biological studies against several cancer cell lines; format: cell-based
From the text: Nevertheless, the protocol seems general and offers new possibilities for peptide-based conjugation.

chymotrypsin = experiment: Proteolytic degradation assay (chymotrypsin-based protocol); format: in vitro ADME; conditions: for protection towards enzymatic degradation (in words): chymotrypsin, after 5–6 h, HPLC-MS profiles; for half-life: chymotrypsin-based protocol (protocol of ref 51), HPLC-MS read-out, Fig. 4b, read-out: t1/2, proteolytic degradation
Protocol: Figure 4 Bioactive stapled peptides, biochemical and cellular studies. (a) Structure of stapled peptides 2l (valorphin analogue) and 2m (baratin analogue). (b) Proteolytic degradation assay of stapled peptides 2g and 2h and their linear precursors 1g and 1h. (c) Structure of labelled-stapled peptide 2j Bodipy (left) and the corresponding confocal microscopy image of SH-SY5Y cells treated with compound 2j Bodipy (750 nM). Scale bar, 25 μm (right).
Next, we determined the proteolytic stability of a couple of meaningful stapled peptides, in comparison with their respective linear counterparts. We followed a chymotrypsin-based protocol, previously used to evaluate stapled peptides.

ανβ3 integrin receptors = ανβ3 integrin receptors (Homo sapiens, UniProt P05106+P06756); experiment: Inhibition of cellular adhesion (integrin antagonism); format: cell-based
Chain of ανβ3 integrin receptors (P06756 31-889 limits assumed): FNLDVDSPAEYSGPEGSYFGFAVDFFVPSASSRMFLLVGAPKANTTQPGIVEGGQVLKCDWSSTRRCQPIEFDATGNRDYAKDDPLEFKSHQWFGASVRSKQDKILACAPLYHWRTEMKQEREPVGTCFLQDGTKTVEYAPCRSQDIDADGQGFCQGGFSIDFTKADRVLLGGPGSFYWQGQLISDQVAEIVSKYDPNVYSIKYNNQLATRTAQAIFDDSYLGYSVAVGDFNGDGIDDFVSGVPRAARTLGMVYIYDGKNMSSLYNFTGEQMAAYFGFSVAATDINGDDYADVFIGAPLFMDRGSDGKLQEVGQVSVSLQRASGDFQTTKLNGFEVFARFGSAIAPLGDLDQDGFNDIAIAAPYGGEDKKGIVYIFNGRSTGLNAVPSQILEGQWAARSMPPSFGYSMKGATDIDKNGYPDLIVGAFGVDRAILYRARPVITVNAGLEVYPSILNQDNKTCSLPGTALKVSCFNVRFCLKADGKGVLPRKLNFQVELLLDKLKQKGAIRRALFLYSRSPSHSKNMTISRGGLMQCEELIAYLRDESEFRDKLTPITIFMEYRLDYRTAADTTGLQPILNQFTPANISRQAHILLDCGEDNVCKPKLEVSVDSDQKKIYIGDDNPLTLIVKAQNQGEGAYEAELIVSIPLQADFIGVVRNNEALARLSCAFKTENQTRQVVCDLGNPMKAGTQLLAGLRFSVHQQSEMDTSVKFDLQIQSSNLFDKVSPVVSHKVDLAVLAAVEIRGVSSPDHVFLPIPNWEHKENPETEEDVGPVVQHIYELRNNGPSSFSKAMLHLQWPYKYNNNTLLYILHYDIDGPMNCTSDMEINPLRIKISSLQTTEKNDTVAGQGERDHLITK
Chain of ανβ3 integrin receptors (P06756 891-1048 partner limits assumed): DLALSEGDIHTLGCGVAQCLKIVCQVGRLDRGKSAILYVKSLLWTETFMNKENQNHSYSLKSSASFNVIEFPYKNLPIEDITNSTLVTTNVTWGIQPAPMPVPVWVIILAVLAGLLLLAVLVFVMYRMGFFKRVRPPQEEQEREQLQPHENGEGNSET
Chain of ανβ3 integrin receptors (P05106 27-788): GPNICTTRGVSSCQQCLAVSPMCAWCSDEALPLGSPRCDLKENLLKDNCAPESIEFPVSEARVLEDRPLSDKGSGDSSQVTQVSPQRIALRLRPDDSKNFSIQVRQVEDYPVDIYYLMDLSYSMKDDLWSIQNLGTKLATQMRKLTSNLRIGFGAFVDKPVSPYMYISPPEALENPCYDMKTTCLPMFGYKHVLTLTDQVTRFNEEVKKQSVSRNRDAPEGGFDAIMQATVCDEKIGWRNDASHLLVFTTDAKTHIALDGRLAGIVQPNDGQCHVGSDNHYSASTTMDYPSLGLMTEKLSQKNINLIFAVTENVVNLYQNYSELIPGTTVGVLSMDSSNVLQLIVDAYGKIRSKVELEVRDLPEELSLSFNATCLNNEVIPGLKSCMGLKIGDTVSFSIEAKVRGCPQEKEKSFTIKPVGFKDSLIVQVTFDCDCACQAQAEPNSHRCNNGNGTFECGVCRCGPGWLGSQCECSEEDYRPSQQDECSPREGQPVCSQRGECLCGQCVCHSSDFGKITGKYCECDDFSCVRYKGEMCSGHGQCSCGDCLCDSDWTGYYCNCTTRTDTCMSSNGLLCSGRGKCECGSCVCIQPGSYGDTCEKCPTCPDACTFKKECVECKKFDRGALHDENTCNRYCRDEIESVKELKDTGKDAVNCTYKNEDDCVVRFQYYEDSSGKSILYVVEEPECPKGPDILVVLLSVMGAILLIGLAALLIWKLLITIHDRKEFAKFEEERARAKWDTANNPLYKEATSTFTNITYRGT
From the text: However, it has to be considered that even linear analogues display a much lower potency (10–10^3 times, depending on the targeted integrin) than the parent cilengitide.

[2] = cc_pd bond
α-chymotrypsin = experiment: chymotrypsin-based protocol; conditions: up to 6 h
SH-SY5Y cells [3] = experiment: Cell penetration and localization (FACS flow cytometry and confocal microscopy); format: cell-based; conditions: 750 nM
From the text: (§1) Finally, we studied the controlled labelling of the stapled peptides. The goal was to selectively attach a fluorophore to the C-terminal amino acid to trace cellular permeabilization and localization. Thus, we linked a Bodipy residue to cyclopeptide 2j through an amino spacer (the novel Bodipy construct was designed and prepared for this purpose, see Supplementary Fig. 16 and Supplementary Methods), to get the desired labelled-stapled peptide 2j Bodipy (Fig. 4c) in a convenient manner. […] The cells treated in this manner were analysed using confocal microscopy.
(§2) Supplementary Figure 17 Cytotoxicity of 1j-Bodipy and 2j-Bodipy peptides using the MTT assay. The toxicity assay was carried out as described in the literature.13 SH-SY5Y cells were transferred to 96-well plates (100 μL medium/well) at a density of 5000 cell/well. After 24 h, cells in triplicate were treated either with 1j-Bodipy or 2j-Bodipy (750 nM and 50 µM) or TRITON 0.2% as positive control for 24 h. Values are represented as means ± SD from three independent experiments.
(§3) Supplementary Figure 18 FACS analysis of SH-SY5Y cells upon incubation with 1j-Bodipy and 2j-Bodipy. For FACS analysis, SH-SY5Y cells were seeded on a plastic 24 well plate and cultured for 24 h. […] Fluorescence sorting was performed with a Gallios Beckman Coulter flow […]

SH-SY5Y cells [4] = experiment: Cytotoxicity, MTT assay; format: cell-based; conditions: 750 nM, 24 h incubation, triplicate, three independent experiments
From the text: as §1, §2, §3

Compound: CC(C)C[C@@H]1NC(=O)[C@H](Cc2ccc(I)cc2)NC(=O)[C@H](CC(C)C)NC(=O)[C@H](C(C)C)NC(=O)[C@H](CC(C)C)NC1=O [compound 4] (cyclo(LLVL[Phe(4-I)]))
IC50 [1]: < 10 µM

protection towards enzymatic degradation (in words) (chymotrypsin): almost total protection
Compound: CC(=O)N[C@H]1Cc2cccc(c2)-c2[nH]c3ccccc3c2C[C@@H](C(N)=O)NC(=O)[C@H](CC(=O)O)NC(=O)CNC(=O)[C@H](CCCNC(=N)N)NC1=O [2h]
selectivity ανβ3 versus ανβ5 integrin receptors (in words) (ανβ3 integrin receptors; preliminary cellular adhesion studies): act selectively as antagonists for the ανβ3 in front of ανβ5 integrin receptors

Compound: CC(=O)N[C@@H](C)C(=O)N[C@H]1Cc2ccccc2-c2[nH]c3ccccc3c2C[C@@H](C(=O)N[C@@H](C)C(=O)O)NC1=O [Ac-Ala-Phe(2-I)-Trp-Ala-OH?]
ring closure, conversion ([2]; from Ac-Ala-Phe(2-I)-Trp-Ala-OH?, 10-membered ring, Pd(OAc)2/AgBF4/TFA?): 0%

Compound: C[C@@H]1NC(=O)[C@H](CCCNC(=N)N)NC(=O)CNC(=O)[C@H](CC(N)=O)NC(=O)[C@H](C)NC(=O)[C@H](Cc2c[nH]c3ccccc23)NC1=O [compound 3] (cyclo(ANGRAW))
activity against several cancer cell lines (in words) [1]: only the cyclopeptide 4 showed activity

cleaved bond (α-chymotrypsin): m-I-Phe-Arg
Compound: Ac-[Phe(3-I)]RGDW-NH2

Compound: CC(=O)N[C@H]1Cc2cccc(c2)-c2[nH]c3ccccc3c2C[C@@H](C(N)=O)NC(=O)[C@H](CC(=O)O)NC(=O)CNC(=O)[C@H](CCCNC(=N)N)NC1=O [Ac-Phe(3-I)-Arg-Gly-Asp-Trp-NH2]
ring closure, conversion ([2]; from Ac-Phe(3-I)-Arg-Gly-Asp-Trp-NH2, 20-membered ring, Pd(OAc)2 5 mol%/AgBF4/TFA, MW 20 min, DMF, 49.0 mM, 90.0 °C): 70%

Compound: CC(=O)N[C@@H](C)C(=O)N[C@H]1Cc2cccc(c2)-c2[nH]c3ccccc3c2C[C@@H](C(=O)N[C@@H](C)C(=O)O)NC(=O)[C@H](C(C)C)NC1=O [Ac-Ala-Phe(3-I)-Val-Trp-Ala-OH]
ring closure, conversion ([2]; from Ac-Ala-Phe(3-I)-Val-Trp-Ala-OH, 14-membered ring, Pd(OAc)2 5 mol%/AgBF4/TFA, MW 20 min, DMF, 55.0 mM, 90.0 °C): 71%

Compound: C[C@H](N)C(=O)N[C@H]1Cc2cccc(c2)-c2[nH]c3ccccc3c2C[C@@H](C(=O)N[C@@H](C)C(=O)O)NC(=O)[C@H](C)NC(=O)[C@H](CO)NC1=O [H-Ala-Phe(3-I)-Ser-Ala-Trp-Ala-OH]
ring closure, conversion ([2]; from H-Ala-Phe(3-I)-Ser-Ala-Trp-Ala-OH, 17-membered ring, Pd(OAc)2 5 mol%/AgBF4/TFA, MW 20 min, DMF, 54.0 mM, 90.0 °C): 39%

Compound: CC(=O)N[C@@H](C)C(=O)N[C@H]1Cc2cccc(c2)-c2[nH]c3ccccc3c2C[C@@H](C(=O)N[C@@H](C)C(=O)O)NC(=O)[C@H](C)NC(=O)[C@H](C)NC1=O [Ac-Ala-Phe(3-I)-Ala-Ala-Trp-Ala-OH]
ring closure, conversion ([2]; from Ac-Ala-Phe(3-I)-Ala-Ala-Trp-Ala-OH, 17-membered ring, Pd(OAc)2 5 mol%/AgBF4/2-NO2BzOH, MW 15 min, DMF:PBS 1:1, 80.0 °C): 100%

Compound: CC(=O)N[C@@H](C)C(=O)N[C@H]1Cc2ccc(O)c(c2)-c2[nH]c3ccccc3c2C[C@@H](C(=O)N[C@@H](C)C(=O)O)NC(=O)[C@H](C)NC(=O)[C@H](C)NC(=O)[C@H](C)NC1=O [Ac-Ala-Tyr(3-I)-Ala-Ala-Ala-Trp-Ala-OH]
ring closure, conversion ([2]; from Ac-Ala-Tyr(3-I)-Ala-Ala-Ala-Trp-Ala-OH, 20-membered ring, Pd(OAc)2 5 mol%/AgBF4/2-NO2BzOH, MW 15 min, DMF:PBS 1:1, 80.0 °C): 100%

half-life (chymotrypsin): 19.8 min
protection towards enzymatic degradation (in words) (chymotrypsin): completely disappeared
Compound: CC(=O)N[C@@H](Cc1cccc(I)c1)C(=O)N[C@@H](CC(N)=O)C(=O)NCC(=O)N[C@@H](CCCNC(=N)N)C(=O)N[C@@H](Cc1c[nH]c2ccccc12)C(N)=O [1g, Ac-m-I-Phe-Asn-Gly-Arg-Trp-NH2] (Ac-[Phe(3-I)]NGRW-NH2)

cleaved bond (α-chymotrypsin): m-I-Phe-Asn
Compound: Ac-[Phe(3-I)]NGRW-NH2

Compound: CC(=O)N[C@@H](C)C(=O)N[C@H]1Cc2cccc(c2)-c2[nH]c3ccccc3c2C[C@@H](C(=O)N[C@@H](C)C(=O)O)NC1=O [Ac-Ala-Phe(3-I)-Trp-Ala-OH?]
ring closure, conversion ([2]; from Ac-Ala-Phe(3-I)-Trp-Ala-OH?, 11-membered ring, Pd(OAc)2/AgBF4/TFA?): 60%

Compound: CC(=O)N[C@@H](C)C(=O)N[C@H]1Cc2cccc(c2)-c2[nH]c3ccccc3c2C[C@@H](C(=O)N[C@@H](C)C(=O)NCCNC(=O)CCC(=O)Nc2ccc(C3=C4C(C)=CC(C)=[N+]4[B-](F)(F)n4c(C)cc(C)c43)cc2)NC(=O)[C@H](C(C)C)NC1=O [2j Bodipy]
cellular localization / penetration (in words) (SH-SY5Y cells [3]; incubation 30 min at 37 °C, confocal microscopy, fluorescence): localized both in the membrane and in the cytoplasmatic region
cell staining in flow cytometry (FACS) (in words) (SH-SY5Y cells [3]; incubation for 30 min, 37 °C, 5% CO2, fluorescence): brightly stained
cytotoxicity (in words) (SH-SY5Y cells [4]): low cytotoxicity

Compound: CC(=O)N[C@@H](C)C(=O)N[C@H]1Cc2ccc(O)c(c2)-c2[nH]c3ccccc3c2C[C@@H](C(=O)N[C@@H](C)C(=O)O)NC(=O)[C@H](C)NC(=O)[C@H](C)NC1=O [Ac-Ala-Tyr(3-I)-Ala-Ala-Trp-Ala-OH]
ring closure, conversion ([2]; from Ac-Ala-Tyr(3-I)-Ala-Ala-Trp-Ala-OH, 17-membered ring, Pd(OAc)2 5 mol%/AgBF4/2-NO2BzOH, MW 15 min, DMF:PBS 1:1, 80.0 °C): 100%

half-life (chymotrypsin): 52.5 min
protection towards enzymatic degradation (in words) (chymotrypsin): completely disappeared
EC50 (ανβ3 integrin receptors; preliminary studies, ανβ3 integrin antagonism, read-out: EC50, capacity to inhibit cellular adhesion): 26 µM
Compound: CC(=O)N[C@@H](Cc1cccc(I)c1)C(=O)N[C@@H](CCCNC(=N)N)C(=O)NCC(=O)N[C@@H](CC(=O)O)C(=O)N[C@@H](Cc1c[nH]c2ccccc12)C(N)=O [1h, Ac-m-I-Phe-Arg-Gly-Asp-Trp-NH2] (Ac-[Phe(3-I)]RGDW-NH2)

Compound: CC(=O)N[C@@H](C)C(=O)N[C@H]1Cc2ccc(O)c(c2)-c2[nH]c3ccccc3c2C[C@@H](C(=O)N[C@@H](C)C(=O)O)NC(=O)[C@H](C)NC1=O [Ac-Ala-Tyr(3-I)-Ala-Trp-Ala-OH]
ring closure, conversion ([2]; from Ac-Ala-Tyr(3-I)-Ala-Trp-Ala-OH, 14-membered ring, Pd(OAc)2 5 mol%/AgBF4/2-NO2BzOH, MW 15 min, DMF:PBS 1:1, 80.0 °C): 100%

Compound: CC(=O)N[C@@H](C)C(=O)N[C@H]1Cc2ccc(cc2)-c2[nH]c3ccccc3c2C[C@@H](C(=O)N[C@@H](C)C(=O)O)NC(=O)[C@@H](NC(=O)[C@H](C)NC(C)=O)Cc2ccc(cc2)-c2[nH]c3ccccc3c2C[C@@H](C(=O)N[C@@H](C)C(=O)O)NC1=O [Ac-Ala-Phe(4-I)-Trp-Ala-OH]
ring closure, conversion ([2]; from Ac-Ala-Phe(4-I)-Trp-Ala-OH, 24-membered ring, Pd(OAc)2 5 mol%/AgBF4/TFA, MW 20 min, DMF, 63.0 mM, 90.0 °C): 60%

Compound: CC(=O)N[C@@H](C)C(=O)N[C@H]1Cc2cccc(c2)-c2[nH]c3ccccc3c2C[C@@H](C(=O)N[C@@H](C)C(=O)O)NC(=O)[C@H](C)NC(=O)[C@H](C)NC(=O)[C@H](C)NC1=O [Ac-Ala-Phe(3-I)-Ala-Ala-Ala-Trp-Ala-OH]
ring closure, conversion ([2]; from Ac-Ala-Phe(3-I)-Ala-Ala-Ala-Trp-Ala-OH, 20-membered ring, Pd(OAc)2 5 mol%/AgBF4/2-NO2BzOH, MW 15 min, DMF:PBS 1:1, 80.0 °C): 100%

Compound: CC(=O)N[C@@H](C)C(=O)N[C@H]1Cc2cccc(c2)-c2[nH]c3ccccc3c2C[C@@H](C(=O)N[C@@H](C)C(=O)O)NC(=O)[C@H](C)NC1=O [Ac-Ala-Phe(3-I)-Ala-Trp-Ala-OH]
ring closure, conversion ([2]; from Ac-Ala-Phe(3-I)-Ala-Trp-Ala-OH, 14-membered ring, Pd(OAc)2 5 mol%/AgBF4/2-NO2BzOH, MW 15 min, DMF:PBS 1:1, 80.0 °C): 38%

Compound: CC(=O)N[C@H]1Cc2cccc(c2)-c2[nH]c3ccccc3c2C[C@@H](C(N)=O)NC(=O)[C@H](CCCNC(=N)N)NC(=O)CNC(=O)[C@H](CC(N)=O)NC1=O [Ac-Phe(3-I)-Asn-Gly-Arg-Trp-NH2]
ring closure, conversion ([2]; from Ac-Phe(3-I)-Asn-Gly-Arg-Trp-NH2, 20-membered ring, Pd(OAc)2 5 mol%/AgBF4/TFA, MW 20 min, DMF, 49.0 mM, 90.0 °C): 77%
